Source: paper PMC12693416, “From Lipid Regulation to Neuroprotection: Multitarget (Benzo)thiazine Derivatives as Promising Leads” (Molecules, 2025)
Where two headings read alike, the source gives them in different places.

Key:
[1] = molecular target: soybean lipoxygenase (LOX-3); test: Soybean lipoxygenase (LOX-3) inhibition; format: biochemical; details: after 5 min of incubation; sodium linoleate 100 μM, pH 9.0
Method: Lipoxygenase (LOX) inhibitory activity was determined using soybean lipoxygenase (250 U/mL) and sodium linoleate (100 μM) as substrate, in Tris–HCl buffer pH 9.0.

hyperlipidaemic mice = test: Tyloxapol (Triton WR 1339)-induced hyperlipidemia, plasma lipid parameters; format: in vivo; details: i.p. 84 μmol/kg; for change in vivo at 84 µmol/kg / inhibition in vivo at 84 µmol/kg: Mus musculus, ip, 24 h
Method: An aqueous solution of Triton WR 1339 was given i.p. to mice (400 mg/kg of body weight) and one hour later the test compounds (84 μmol/kg of body weight), dissolved in saline or saline only, were administered i.p. After 24 h, blood was taken from the aorta/heart and used for the determination of plasma total cholesterol (TC), triglyceride (TG) levels, and high-density lipoprotein (HDL) levels, using commercially available kits (Biosis Cholesterol Enzymatic/PAP, Biosis Triglycerides GPO/PAP, and Biosis HDL Phosphovolframic, Biosis, Athens Greece). Levels of plasma lipids were determined in duplicate while values presented are the mean from 8 animals (per compound). The levels of low-density lipoprotein (LDL) are calculated according to the equation: LDL (mg/dL) = 3/4 * (TC-HDL).

[2] = Radical scavenging of DPPH; details: DPPH 200 μM, 30 min incubation
Method: Compounds, dissolved in absolute methanol, at concentrations of 25–400 μM, were added to an equal volume of a methanolic solution of DPPH (final concentration 200 μM) at room temperature (22 ± 2 °C).

[3] = Iron chelation (ferrozine assay); details: for % of Fe(II) Chelation at 10 μM: 10 μM compound; for % of Fe(II) Chelation (at 100 μM): 100 μM compound, Fe2+ 20 μM
Method: […] The reaction was initiated with the addition of a 100 μM aqueous ferrozine solution, which chelates iron ions, resulting in an increased maximum absorbance at 562 nm. After incubation at 37 °C for 10 min, the mixture’s absorbance is measured at 562/700 nm. Each value is expressed as the mean of 3 tests per sample [46].

[4] = test system: carrageenan-induced mouse paw edema; test: Carrageenan-induced mouse paw edema; format: in vivo, C57BL/6 mice; details: ip, 3.5 h, i.p. 0.30 mmol/kg, female C57BL/6, 3.5 h after carrageenan, read-out: % Edema (decrease of carrageenan-induced paw edema vs control)
Method: For the in vivo anti-inflammatory activity, C57BL/6 mice were injected with 0.025 mL carrageenan (2% w/v solution in saline) i.d. into the right hind paw, the left paw serving as control. The test compounds dissolved in saline (300 μmol/kg) were given i.p. right after the carrageenan injection, and 3.5 h later the produced edema was estimated as paw weight increase. Results are expressed as percentage of reduction in paw-edema and are the mean of 6 animals (per compound).

[5] = molecular target: T1, acetylcholinesterase from eel (Electrophorus electricus, UniProt O42275); test: Acetylcholinesterase (AChE) inhibition (Ellman); format: biochemical; details: for inhibition at 300 µM: read-out: AChE Inhibition (%), 300 μM compound
T1 construct: purchased Sigma
Method: (0.31 mM) in phosphate buffer with pH = 7. The incubation mixture is monitored for 7 min at 37 °C.

[6] = test system: mouse liver microsomal lipid peroxidation; test: Inhibition of mouse liver microsomal lipid peroxidation (LP); details: for IC50: read-out: LP IC50 Value, 45 min incubation; for LP % Inhibition at 100 μΜ: 100 μM compound
[7] = test system: plasma of hyperlipidaemic mice; test: Total antioxidant capacity (TAC) of plasma in hyperlipidaemic mice; format: in vivo; details: Mus musculus, ip, 24 h, i.p. 84 μmol/kg, read-out: Total Antioxidant Capacity (TAC) Increase (%)
[8] = plasma, vs tyloxapol control, read-out: % HDL Increase
[9] = LDL calculated as 3/4*(TC-HDL), read-out: % LDL Decrease
[10] = plasma, vs tyloxapol control, read-out: % Total Cholesterol (TC) Reduction
[11] = plasma, vs tyloxapol control, read-out: % Triglycerides (TG) Reduction
[12] = ratio calculated, read-out: % HDL/LDL Increase (antiatherogenic index)

T1 sequence (O42275 24-633): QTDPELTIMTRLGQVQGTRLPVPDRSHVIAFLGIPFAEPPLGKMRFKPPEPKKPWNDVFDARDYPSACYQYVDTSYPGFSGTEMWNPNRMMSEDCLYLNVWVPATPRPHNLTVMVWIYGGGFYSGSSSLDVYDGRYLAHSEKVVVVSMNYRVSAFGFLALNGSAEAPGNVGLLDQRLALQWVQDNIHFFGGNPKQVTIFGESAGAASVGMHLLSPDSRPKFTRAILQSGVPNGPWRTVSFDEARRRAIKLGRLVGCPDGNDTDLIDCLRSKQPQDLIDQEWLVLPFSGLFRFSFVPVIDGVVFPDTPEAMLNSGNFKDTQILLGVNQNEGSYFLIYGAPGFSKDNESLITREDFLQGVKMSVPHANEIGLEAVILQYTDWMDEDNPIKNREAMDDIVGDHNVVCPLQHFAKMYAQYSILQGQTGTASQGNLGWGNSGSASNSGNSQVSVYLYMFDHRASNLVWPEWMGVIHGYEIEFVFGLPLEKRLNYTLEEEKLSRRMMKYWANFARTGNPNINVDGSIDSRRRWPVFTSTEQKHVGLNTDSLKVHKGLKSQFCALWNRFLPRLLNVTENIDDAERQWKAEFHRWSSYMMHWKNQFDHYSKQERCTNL

Structure (SMILES)	IC50 [1] [µM]	change in vivo at 84 µmol/kg (hyperlipidaemic mice; [8]) [%]	inhibition in vivo at 84 µmol/kg (hyperlipidaemic mice; [9]) [%]	inhibition in vivo at 84 µmol/kg (hyperlipidaemic mice; [10]) [%]	inhibition in vivo at 84 µmol/kg (hyperlipidaemic mice; [11]) [%]	IC50 [2] [µM]	% of Fe(II) Chelation at 10 μM [3] [%]	% of Fe(II) Chelation (at 100 μM) [3] [%]	inhibition in vivo at 300 µmol/kg [4] [%]	inhibition at 300 µM [5] [%]	IC50 [6] [µM]	change in vivo at 84 µmol/kg [7] [%]	change in vivo at 84 µmol/kg (hyperlipidaemic mice; [12]) [%]	% Triglycerides (TG), value marked footnote 1: increase percentage (hyperlipidaemic mice; plasma, TG increase, not reduction)	LP % Inhibition at 100 μΜ [6] [%]	AChE Inhibition (%) ([5]; 300 μM compound)	% HDL, value marked footnote 2: decrease percentage (hyperlipidaemic mice; plasma, HDL decrease, not increase)
CC(C)Cc1ccc(C(C)C(=O)O)cc1 (centres unmarked) [ibuprofen, reference compound]	> 300																
O=C(c1cc(O)c(O)c(O)c1)N1CCSC(c2ccc(-c3ccccc3)cc2)C1 (centres unmarked) [Compound 3, (2-([1,1′-Biphenyl]-4-yl)thiomorpholino)(3,4,5-trihydroxyphenyl)methanone]	4	49	79	51	86	31	56	89	≤ 60	10	8						
O=C(c1cc(O)c(O)c(O)c1)N1CC(c2ccc(-c3ccccc3)cc2)Sc2ccccc21 (centres unmarked) [Compound 13, (2-([1,1′-Biphenyl]-4-yl)-2,3-dihydro-4H-benzo[b][1,4]thiazin-4-yl)(3,4,5-trihydroxyphenyl)methanone]	37	25	62	47	53	36	12	91	≤ 60	~45	24	60					
CC(C)(C)c1cc(C(=O)N2CCSC(c3ccc(-c4ccccc4)cc3)C2)cc(C(C)(C)C)c1O (centres unmarked) [Compound 5, (2-([1,1′-Biphenyl]-4-yl)thiomorpholino)(3,5-ditertbutyl-4-hydroxyphenyl)methanone]	150			55	50	300		0	35	24	250	0					
CC(C)Cc1ccc(C(C)C(=O)N2CCSC(c3ccc(-c4ccccc4)cc3)C2)cc1 (centres unmarked) [Compound 7, 1-(2-([1,1′-Biphenyl]-4-yl)thiomorpholino)-2-(4-isobutylphenyl)propan-1-one]	22			27	70	> 400		3	27	27	299	0					
O=C(c1cccnc1)N1CCSC(c2ccc(-c3ccccc3)cc2)C1 (centres unmarked) [Compound 9]	192		44	35		> 400		2	34	33	> 1000	60	105	33 *^,1%			
CC(C)(C)c1cc(/C=C/C(=O)N2CC(c3ccc(-c4ccccc4)cc3)Sc3ccccc32)cc(C(C)(C)C)c1O (centres unmarked) [Compound 16, (E)-1-(2-([1,1′-Biphenyl]-4-yl)-2,3-dihydro-4H-benzo[b][1,4]thiazin-4-yl)-3-(3,5-ditertbutyl-4-hydroxyphenyl)prop-2-en-1-one]	58	131	66	45	67	141		9	45	24	> 1000						
O=C(O)c1cc(O)c(O)c(O)c1 [gallic acid, reference compound]						14		98							73		
COc1cc(/C=C/C(=O)N2CCSC(c3ccc(-c4ccccc4)cc3)C2)ccc1O (centres unmarked) [Compound 1, (E)-1-(2-([1,1′-Biphenyl]-4-yl)thiomorpholino)-3-(4-hydroxy-3-methoxyphenyl)prop-2-en-1-one]	68	84	59	40	83	166		19	≤ 60	22	6						
c1ccc(-c2ccc(C3CNc4ccccc4S3)cc2)cc1 (centres unmarked) [Compound 11, 2-([1,1′-Biphenyl]-4-yl)-3,4-dihydro-2H-benzo[b][1,4]thiazine]	134	101	48	23	59	> 400		10	40		30	> 200				inactivity	
Cc1cc(C(C)(C)C)c(O)c(C(C)(C)C)c1 [BHT, butylated hydroxytoluene, reference compound]						31		0							0		
COc1ccc2cc([C@H](C)C(=O)O)ccc2c1 [naproxen, reference compound]	25																
CC(C)(C)c1cc(/C=C/C(=O)N2CCSC(c3ccc(-c4ccccc4)cc3)C2)cc(C(C)(C)C)c1O (centres unmarked) [Compound 6, (E)-1-(2-([1.1′-Biphenyl]-4-yl)thiomorpholino)-3-(3,5-ditertbutyl-4-hydroxyphenyl)prop-2-en-1-one]	252		49	36	65	288		0	33	~45	> 500		43				23 **^,2%
Cc1c(C)c2c(c(C)c1O)CCC(C)(C(=O)N1CCSC(c3ccc(-c4ccccc4)cc3)C1)O2 (centres unmarked) [Compound 10]	140	32	23	13	52	78		0	43	~45	4		77				
CC(C)(C)c1cc(/C=C/C(=O)O)cc(C(C)(C)C)c1O [acrylic derivative, (E)-3-(3,5-ditertbutyl-4-hydroxyphenyl)acrylic acid, reference compound]						77											
O=C(O)/C=C/c1ccccc1 [cinnamic acid, reference compound]	> 300																
O=C1O[C@H]([C@@H](O)CO)C(O)=C1O [ascorbic acid, reference compound]						42											
Cc1c(C)c2c(c(C)c1O)CCC(C)(C(=O)O)O2 (centres unmarked) [Trolox, 6-hydroxy-2,5,7,8-tetramethylchroman-2-carboxylic acid, reference compound]						33		29							43		
